Source: US5686424A, “2-oxoethyl derivatives as immunosuppressants” (Miles Inc., priority 1995, dated 1997)
Read-outs that look alike come from different tables or passages of the source.

Assays:
human T-cells = assay: Suppression of Human T-Cell Proliferation Assay (PHA-stimulated, [3H]-thymidine incorporation); assay type: cell-based; conditions: TABLE 2
How it was run: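 Read-out is scintillation counting of [3H]-thymidine pulsed for the last 6 h of a 72 h, 37° C culture. Human T-cells, isolated from LeukoPaks by Lymphoprep and sheep-erythrocyte rosetting, were PHA-M activated (40 μg/ml stock) with compound dilutions added in duplicate wells.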

NF-AT = NF-AT Inhibition Assay Directed β-Galactosidase Expression in FGL-5 cells; assay type: cell-based; conditions: 50% inhibition of NF-AT directed β-galactosidase activity in FGL-5 cells stimulated with phorbol dibutyrate and ionomycin; TABLE 3
How it was run: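 FGL-5 Jurkat cells (3 million cells/ml) carry NF-AT-site-driven lacZ. They were stimulated with phorbol dibutyrate plus ionomycin and incubated with compound 16-18 h at 37 °C, in duplicate wells with matched ethanol or DMSO vehicle controls. β-Galactosidase was read as fluorescence from 4-methylumbelliferyl-β-D-galactoside cleavage, giving percent inhibition.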

[1] = read-out: concentrations that suppress the T-cell proliferative response by 50%
[2] = concentration inhibiting [3H]-thymidine incorporation of PHA-stimulated T-cells by 50%, 72 hours, read-out: IC50

Row | Structure (SMILES) | IC50 (NF-AT) | IC50 (human T-cells; [1]) | IC50 (human T-cells; [2])
1 | CC[C@H](C)[C@H](NC(=O)[C@@H]1CCCN1CC(=O)NC12CC3CC(CC(C3)C1)C2)C(=O)NCc1ccccc1 [Example 39, L-Isoleucine, N-[1-(2-Aminoadamant-1-yl-2-oxoethyl)-L-Prolyl] Benzylamide] | 41 µM | < 10 µM | 6 µM
2 | CC[C@H](C)[C@H](NC(=O)[C@@H]1CCCN1CC(=O)C12CC3CC(CC(C3)C1)C2)C(=O)N[C@H](C)c1ccccc1 [Example 66, L-Isoleucine, N-[1-(2-Adamantan-1-yl-2-Oxoethyl)-L-Prolyl] alpha-(R)-methylbenzylamide] | 57 µM | < 10 µM | 3 µM
3 | CC[C@H](C)[C@H](NC(=O)[C@@H]1CCCN1CC(=O)NC1C2CC3CC(C2)CC1C3)C(=O)NCc1ccccc1 (stereo partly drawn) [Example 90, L-Isoleucine, N-[1-(Adamantan-2-ylcarbamoylmethyl)-L-Prolyl] Benzylamide] | > 100 µM | < 10 µM | 6 µM
4 | CC[C@H](C)[C@H](NC(=O)[C@@H]1CCCN1CC(=O)O[C@H](c1ccccc1)C(C)C)C(=O)NCc1ccccc1 [Example 92, L-Isoleucine, N-[1-(2-(2-Methyl-1-(S)-Phenyl-1-Propoxy)-2-Oxoethyl)-L-Prolyl] Benzylamide] | 44 µM | < 10 µM | 6 µM

These reach a lower IC50 (NF-AT). Values come first.

Row | IC50 (NF-AT) | Structure (SMILES) | IC50 (human T-cells; [1]) | IC50 (human T-cells; [2])
5 | 13 µM | CC[C@H](C)[C@H](NC(=O)[C@@H]1CCCN1CC(=O)C1CC2CC(C1C)C2(C)C)C(=O)NCc1ccccc1 (stereo partly drawn) [Example 41, L-Isoleucine, N-[1-[2-(2,6,6-Trimethyl-Bicyclo[3.1.1]hept-3-yl)-2-Oxoethyl]-L-Prolyl] Benzylamide] | < 10 µM | 6 µM
6 | 13 µM | O=C(NCc1ccccc1)[C@H](COCc1ccccc1)NC(=O)[C@@H]1CCCN1CC(=O)C12CC3CC(CC(C3)C1)C2 [Example 62, L-Serine-(O-Benzyl Ether), N-[1-(2-Adamantan-1-yl-2-Oxoethyl)-L-Prolyl] Benzylamide] | < 10 µM | 4 µM
7 | 20 µM | O=C(CC(NC(=O)[C@@H]1CCCN1CC(=O)C12CC3CC(CC(C3)C1)C2)c1ccccc1)NCc1ccccc1 (stereo partly drawn) [Example 63, L-β-Phenylalanine, N-[1-(2-Adamantan-1-yl-2-Oxoethyl)-L-Prolyl] Benzylamide] | < 10 µM | 6 µM
8 | 19 µM | CC[C@H](C)[C@H](NC(=O)[C@@H]1CCCN1CC(=O)O[C@@H](c1ccccc1)C(C)C)C(=O)NCc1ccccc1 [Example 93, L-Isoleucine, N-[1-(2-(2-Methyl-1-(R)-Phenyl-1-Propoxy)-2-Oxoethyl)-L-Prolyl] Benzylamide] | < 10 µM | 6 µM
